# Measurements published in ChEMBL document CHEMBL1201862, “PubChem BioAssay data set” (2004).
# “And” between values parts separate entries of the source, which are not always exact repeats. Equal values may be shown once. The source made the active and inactive calls.
# Legend:
# [1] = RKO cell viability reduction, dose response, CellTiter-Glo luminescence (AID 1117322); format: functional
# [2] = CellTiter-Glo luminescence survival assay, SW480 colon tumor line, concentration-response curve, half-maximal inhibitory concentration (AID 1117338); format: functional
# [3] = cytotoxicity toward HCT116 cells – cell-based, CellTiter-Glo luminescence, IC50, dose response (AID 1117332); format: functional; conditions: HCT-116
# [4] = cytotoxicity toward Colo320 cells – cell-based, CellTiter-Glo luminescence, IC50, dose response (AID 1117334); format: functional; conditions: COLO 320
# [5] = rise of 4N DNA cells, HeLa – IC50, dose response (AID 1117351); format: functional, cell-based
# [6] = molecular target: Delta-type opioid receptor (Homo sapiens, UniProt P41143); assay: Counterscreen for agonists of heterodimerization of the mu 1 (OPRM1) and delta 1 (OPRD1) opioid receptors: Luminescence-based cell-based high throughput dose response assay to identify agonists of OPRD1 homodimerization. [Related pubchem assays (depositor defined):AID504326, AID504355, AID504692, AID504904, AID504905]; format: functional
# Sequence of Delta-type opioid receptor (P41143 whole entry): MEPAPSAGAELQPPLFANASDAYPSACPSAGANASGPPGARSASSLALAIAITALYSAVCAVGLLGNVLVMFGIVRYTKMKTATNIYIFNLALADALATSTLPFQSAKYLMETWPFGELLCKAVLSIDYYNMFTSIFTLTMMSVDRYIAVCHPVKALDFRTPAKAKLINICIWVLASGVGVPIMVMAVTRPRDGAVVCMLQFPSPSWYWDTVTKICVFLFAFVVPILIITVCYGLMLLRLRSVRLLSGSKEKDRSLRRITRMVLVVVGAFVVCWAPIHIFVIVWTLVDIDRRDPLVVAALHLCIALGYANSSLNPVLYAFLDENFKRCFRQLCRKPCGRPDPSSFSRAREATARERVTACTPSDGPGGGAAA
# [7] = cytotoxicity toward HT-29 cells – cell-based, CellTiter-Glo luminescence, IC50, dose response (AID 1117330); format: functional
# [8] = molecular target: 5-hydroxytryptamine receptor 5A (Homo sapiens, UniProt P47898); assay: Counterscreen for agonists of OPRM1-OPRD1 heterodimerization: luminescence-based cell-based high throughput dose response assay to identify agonists of 5-hydroxytryptamine (serotonin) 5A receptor (HTR5A). [Related pubchem assays (depositor defined):AID504326, AID504355, AID504692, AID504904, AID504905]; format: functional
# [9] = HCT116 cell viability decrease, GSK3B pretreatment – CellTiter-Glo, IC50, dose response (AID 1117339); format: functional; conditions: HCT-116
# [10] = Reduced DLD-1 viability, concentration-response, CellTiter-Glo luminescence (AID 1117352); format: functional
# [11] = molecular target: Mu-type opioid receptor (Homo sapiens, UniProt P35372); assay: Counterscreen for agonists of heterodimerization of the mu 1 (OPRM1) and delta 1 (OPRD1) opioid receptors: Luminescence-based cell-based high throughput dose response assay to identify agonists of OPRM1 homodimerization.; format: functional;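 further: U2OS cells expressing OPRM1 and beta-arrestin as split beta-galactosidase partners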
# [12] = rise of 2N DNA cells, HeLa – IC50, dose response (AID 1117349); format: functional, cell-based
# [13] = SNU-C1 cell viability reduction, dose response, CellTiter-Glo luminescence (AID 1117323); format: functional, cell-based
# [14] = molecular target: 14-3-3 protein gamma (Homo sapiens, UniProt P61981); assay: modulators of 14-3-3 gamma client binding – dose response (AID 711); format: functional
# Sequence of 14-3-3 protein gamma (P61981 whole entry): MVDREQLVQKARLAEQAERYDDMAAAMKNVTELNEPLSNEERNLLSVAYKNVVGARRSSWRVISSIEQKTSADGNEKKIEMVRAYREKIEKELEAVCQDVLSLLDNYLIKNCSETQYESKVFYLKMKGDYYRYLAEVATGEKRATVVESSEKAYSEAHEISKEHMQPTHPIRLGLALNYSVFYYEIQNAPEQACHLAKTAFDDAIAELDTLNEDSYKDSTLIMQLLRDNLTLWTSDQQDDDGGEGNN
# [15] = molecular target: Induced myeloid leukemia cell differentiation protein Mcl-1 (Homo sapiens, UniProt Q07820); format: functional
# [16] = molecular target: Prothrombin (Homo sapiens, UniProt P00734); assay: Thrombin 1536 HTS Dose Response Confirmation. [Related pubchem assays: 1046 (Thrombin 1536 HTS; hits were confirmed in this assay)]; format: functional
# [17] = molecular target: Photoreceptor-specific nuclear receptor (Homo sapiens, UniProt Q9Y5X4); assay: ligands suppressing NR2E3 nuclear receptor activity – biochemical, TR-FRET, dose response (AID 463256); format: functional
# Sequence of Photoreceptor-specific nuclear receptor (Q9Y5X4 whole entry): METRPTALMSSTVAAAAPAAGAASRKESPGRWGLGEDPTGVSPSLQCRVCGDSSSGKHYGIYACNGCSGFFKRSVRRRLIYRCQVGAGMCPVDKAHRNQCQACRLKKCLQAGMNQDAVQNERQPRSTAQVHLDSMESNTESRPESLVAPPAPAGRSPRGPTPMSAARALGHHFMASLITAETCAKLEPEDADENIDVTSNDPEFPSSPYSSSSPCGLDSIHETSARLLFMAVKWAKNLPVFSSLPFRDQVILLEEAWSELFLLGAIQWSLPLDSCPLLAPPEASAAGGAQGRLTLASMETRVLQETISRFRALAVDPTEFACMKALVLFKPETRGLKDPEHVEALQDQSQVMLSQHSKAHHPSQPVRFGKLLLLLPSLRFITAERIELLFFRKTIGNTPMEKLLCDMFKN
# [18] = molecular target: Peroxisome proliferator-activated receptor gamma/Nuclear receptor corepressor 2 (Homo sapiens, UniProt P37231+Q9Y618); assay: Counterscreen for NR2E3 inverse agonists: TR-FRET-based biochemical high throughput dose response assay to identify inverse agonists of the interaction between peroxisome proliferator-activated receptor gamma (PPARg) and nuclear receptor co-repressor 2 (NCOR2).; format: functional
# Sequence of Peroxisome proliferator-activated receptor gamma/Nuclear receptor corepressor 2 (P37231 whole entry): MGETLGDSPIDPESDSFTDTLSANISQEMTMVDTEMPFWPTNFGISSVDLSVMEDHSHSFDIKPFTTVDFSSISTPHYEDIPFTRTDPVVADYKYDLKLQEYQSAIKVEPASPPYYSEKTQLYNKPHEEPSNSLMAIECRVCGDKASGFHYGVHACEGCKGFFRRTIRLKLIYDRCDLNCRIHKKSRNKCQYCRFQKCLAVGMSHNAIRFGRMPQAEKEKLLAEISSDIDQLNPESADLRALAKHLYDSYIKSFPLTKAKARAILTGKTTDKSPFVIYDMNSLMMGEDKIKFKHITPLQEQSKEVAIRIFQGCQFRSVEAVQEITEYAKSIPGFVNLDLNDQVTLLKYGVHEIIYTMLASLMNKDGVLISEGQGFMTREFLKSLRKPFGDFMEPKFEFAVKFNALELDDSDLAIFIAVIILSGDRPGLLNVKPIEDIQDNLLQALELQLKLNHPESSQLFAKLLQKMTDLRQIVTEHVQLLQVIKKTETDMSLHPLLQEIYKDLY
# Sequence of Peroxisome proliferator-activated receptor gamma/Nuclear receptor corepressor 2 (Q9Y618 whole entry): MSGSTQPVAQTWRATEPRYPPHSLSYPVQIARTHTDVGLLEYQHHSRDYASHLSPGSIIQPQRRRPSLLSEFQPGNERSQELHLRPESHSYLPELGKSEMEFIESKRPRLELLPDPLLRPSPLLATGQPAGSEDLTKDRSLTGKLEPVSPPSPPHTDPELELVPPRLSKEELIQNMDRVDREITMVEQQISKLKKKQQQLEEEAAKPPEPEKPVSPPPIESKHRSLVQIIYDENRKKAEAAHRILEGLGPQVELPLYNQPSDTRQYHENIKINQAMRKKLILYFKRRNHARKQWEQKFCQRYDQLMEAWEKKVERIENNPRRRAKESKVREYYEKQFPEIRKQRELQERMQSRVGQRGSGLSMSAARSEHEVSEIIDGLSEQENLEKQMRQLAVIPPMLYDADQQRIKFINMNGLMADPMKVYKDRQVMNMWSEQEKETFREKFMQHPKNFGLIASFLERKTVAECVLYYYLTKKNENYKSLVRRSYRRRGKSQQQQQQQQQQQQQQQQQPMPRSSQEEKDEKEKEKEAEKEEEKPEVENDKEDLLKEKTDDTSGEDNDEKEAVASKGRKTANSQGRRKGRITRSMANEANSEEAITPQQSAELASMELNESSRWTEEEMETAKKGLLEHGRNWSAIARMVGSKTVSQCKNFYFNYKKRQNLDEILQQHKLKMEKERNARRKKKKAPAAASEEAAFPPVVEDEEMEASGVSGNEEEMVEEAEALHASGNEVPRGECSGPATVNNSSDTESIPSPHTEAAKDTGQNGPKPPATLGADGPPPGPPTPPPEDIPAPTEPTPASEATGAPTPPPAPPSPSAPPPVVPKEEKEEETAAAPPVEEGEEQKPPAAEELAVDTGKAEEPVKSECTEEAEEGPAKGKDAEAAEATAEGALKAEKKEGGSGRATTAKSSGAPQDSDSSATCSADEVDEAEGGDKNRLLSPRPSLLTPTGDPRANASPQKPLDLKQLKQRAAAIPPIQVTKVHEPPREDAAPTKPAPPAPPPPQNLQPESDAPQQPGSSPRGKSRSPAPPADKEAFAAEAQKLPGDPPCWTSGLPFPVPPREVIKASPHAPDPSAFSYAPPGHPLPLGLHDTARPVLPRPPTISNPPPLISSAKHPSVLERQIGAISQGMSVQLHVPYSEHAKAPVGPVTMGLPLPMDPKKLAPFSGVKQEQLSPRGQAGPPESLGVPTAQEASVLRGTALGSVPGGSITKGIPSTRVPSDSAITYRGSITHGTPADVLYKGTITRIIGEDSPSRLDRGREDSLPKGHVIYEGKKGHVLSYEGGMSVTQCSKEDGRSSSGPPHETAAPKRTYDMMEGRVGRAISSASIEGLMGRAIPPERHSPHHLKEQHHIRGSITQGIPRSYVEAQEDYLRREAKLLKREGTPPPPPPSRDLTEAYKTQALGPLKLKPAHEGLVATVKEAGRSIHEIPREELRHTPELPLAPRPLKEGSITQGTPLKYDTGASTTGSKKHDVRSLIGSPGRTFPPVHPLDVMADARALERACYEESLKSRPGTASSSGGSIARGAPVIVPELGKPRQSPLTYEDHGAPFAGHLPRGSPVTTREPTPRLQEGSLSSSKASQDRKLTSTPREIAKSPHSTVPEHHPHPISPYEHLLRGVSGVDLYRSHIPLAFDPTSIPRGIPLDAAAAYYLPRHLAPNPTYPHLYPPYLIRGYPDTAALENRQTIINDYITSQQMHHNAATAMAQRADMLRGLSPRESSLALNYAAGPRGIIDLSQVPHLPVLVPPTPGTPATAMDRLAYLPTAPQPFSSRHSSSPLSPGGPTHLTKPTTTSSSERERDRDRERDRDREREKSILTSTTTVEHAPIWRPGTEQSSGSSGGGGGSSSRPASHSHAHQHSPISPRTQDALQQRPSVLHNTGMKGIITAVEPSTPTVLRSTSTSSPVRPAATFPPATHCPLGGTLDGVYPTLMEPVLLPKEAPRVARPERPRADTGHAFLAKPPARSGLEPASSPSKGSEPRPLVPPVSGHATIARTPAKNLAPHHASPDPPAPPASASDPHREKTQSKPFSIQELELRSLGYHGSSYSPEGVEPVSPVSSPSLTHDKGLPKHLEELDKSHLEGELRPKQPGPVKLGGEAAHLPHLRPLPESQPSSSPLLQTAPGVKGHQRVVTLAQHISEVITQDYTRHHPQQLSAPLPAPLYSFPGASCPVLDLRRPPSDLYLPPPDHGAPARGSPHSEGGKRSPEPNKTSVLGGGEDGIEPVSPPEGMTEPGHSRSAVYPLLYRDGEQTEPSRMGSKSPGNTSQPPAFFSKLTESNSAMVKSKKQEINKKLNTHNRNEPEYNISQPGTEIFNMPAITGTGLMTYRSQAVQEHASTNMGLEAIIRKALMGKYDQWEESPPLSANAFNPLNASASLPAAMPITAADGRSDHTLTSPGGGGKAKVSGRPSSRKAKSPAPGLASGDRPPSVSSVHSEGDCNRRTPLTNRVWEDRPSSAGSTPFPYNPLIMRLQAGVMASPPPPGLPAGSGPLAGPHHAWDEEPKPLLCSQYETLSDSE
# [19] = molecular target: Ephrin type-A receptor 4 (Mus musculus, UniProt Q03137); assay: EphA4 ligand-binding antagonists – biochemical, colorimetric, mouse EphA4, primary screen (AID 689); format: functional
# Sequence of Ephrin type-A receptor 4 (Q03137 whole entry): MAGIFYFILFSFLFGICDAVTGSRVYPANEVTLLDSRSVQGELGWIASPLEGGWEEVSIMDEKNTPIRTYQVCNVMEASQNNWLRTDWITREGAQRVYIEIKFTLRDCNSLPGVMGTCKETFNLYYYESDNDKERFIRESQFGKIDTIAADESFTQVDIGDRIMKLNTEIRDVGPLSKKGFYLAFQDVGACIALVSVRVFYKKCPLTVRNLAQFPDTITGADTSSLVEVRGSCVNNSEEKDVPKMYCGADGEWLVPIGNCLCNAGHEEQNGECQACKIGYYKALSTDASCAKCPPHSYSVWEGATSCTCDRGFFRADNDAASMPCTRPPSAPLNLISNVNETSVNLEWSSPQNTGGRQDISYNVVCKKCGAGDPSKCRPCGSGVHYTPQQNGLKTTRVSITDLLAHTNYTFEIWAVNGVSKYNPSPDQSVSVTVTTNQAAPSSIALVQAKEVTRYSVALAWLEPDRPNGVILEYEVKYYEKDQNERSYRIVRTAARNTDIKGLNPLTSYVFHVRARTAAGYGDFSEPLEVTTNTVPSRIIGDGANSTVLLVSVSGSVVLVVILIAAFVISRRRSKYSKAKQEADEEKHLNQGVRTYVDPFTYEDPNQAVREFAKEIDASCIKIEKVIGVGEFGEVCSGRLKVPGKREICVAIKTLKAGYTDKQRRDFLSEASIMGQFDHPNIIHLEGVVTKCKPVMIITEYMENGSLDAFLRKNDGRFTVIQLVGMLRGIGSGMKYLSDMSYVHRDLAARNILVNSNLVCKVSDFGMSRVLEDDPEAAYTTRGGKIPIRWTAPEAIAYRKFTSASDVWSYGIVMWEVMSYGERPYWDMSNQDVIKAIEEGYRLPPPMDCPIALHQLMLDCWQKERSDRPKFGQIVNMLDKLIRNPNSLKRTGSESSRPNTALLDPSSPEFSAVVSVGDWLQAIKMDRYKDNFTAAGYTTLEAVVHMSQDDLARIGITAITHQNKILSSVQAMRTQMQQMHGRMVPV
# [20] = molecular target: UDP-galactopyranose mutase (Mycobacterium tuberculosis, UniProt P9WIQ1); assay: Inhibitors of Mycobacterium tuberculosis UDP-galactopyranose mutase (UGM) enzyme Measured in Biochemical System Using Plate Reader - 2105-02_Inhibitor_Dose_CherryPick_Activity. [Related pubchem assays (depositor defined):AID504439]
# [21] = molecular target: Cytochrome P450 2C19 (Homo sapiens, UniProt P33261); assay: Cytochrome panel assay with activity outcomes. Panel member name: p450-cyp2c19 Compounds with AC50 equal or less than 10 uM are considered active; format: functional
# [22] = molecular target: NADPH oxidase 1 (Homo sapiens, UniProt Q9Y5S8); assay: Late-stage luminescence-based cell-based dose response assay to identify inhibitors of NADPH oxidase 1 (NOX1): Purchased analogs 2.; format: functional
# [23] = test system: Vero; assay: inhibition of WNV-induced cytopathic effect – cell-based, CPE readout (AID 1621); format: functional; conditions: Chlorocebus sabaeus
# [24] = test system: Vero; assay: mammalian cell viability reduction – secondary assay, cytotoxicity control for West Nile virus antiviral project, dose response (AID 1650); format: functional; conditions: Chlorocebus sabaeus
# [25] = A High Throughput Confirmatory Assay used to Identify Novel Compounds that Inhibit Mycobacterium Tuberculosis in the absence of Glycerol.; format: functional
# [26] = M. tuberculosis growth inhibition, HTS (AID 449762); format: functional
smiles,measurement,setting,value
CCC(COC(=O)c1cc(OC)c(OC)c(OC)c1)(c1ccccc1)N(C)C (stereo unspecified),IC50,[1],0.142 µM (active)
same,IC50,[2],> 20 µM (inactive)
same,IC50,[3],> 20 µM (inactive)
same,IC50,[4],> 20 µM (inactive)
same,IC50,[5],> 10 µM (inactive)
same,EC50,[6],> 92.5 µM (inactive) and 65.1 µM (inactive)
same,IC50,[7],> 20 µM (inactive)
same,EC50,[8],> 92.5 µM (inactive)
same,IC50,[9],1.61 µM (active)
same,IC50,[10],> 20 µM (inactive)
same,EC50,[11],> 92.5 µM (inactive)
same,IC50,[12],> 10 µM (inactive)
same,IC50,[13],2.45 µM (active)
COCCNC(=O)C(c1ccncc1)N(C(=O)Cn1nnc2ccccc21)c1ccc(OC)cc1 (stereo unspecified),IC50,[14],24.6 µM (active)
O=[N+]([O-])c1ccc(-c2cc(O)n3nc(-c4ccc(Cl)cc4)cc3n2)cc1,IC50,[15],1.72 µM (active)
same,IC50,[16],> 50 µM (not active)
COc1ccc(-c2oc3ncn4nc(Cc5ccccc5)nc4c3c2-c2ccc(OC)cc2)cc1,IC50,[17],7.69 µM (active)
same,IC50,[18],6.02 µM (active)
CCCCn1nc(-c2ccccc2)c2nc3ccccc3nc21,IC50,[19],13.1 µM (active)
same,AC50,[20],41.9 µM (active)
same,AC50,[21],inconclusive
O=[N+]([O-])c1ccc(/C=N/Nc2c(Cl)cc(Cl)cc2Cl)cc1,IC50,[22],> 17 µM (not active)
CC(C)c1cc(C(C)C)c(S(=O)(=O)N2c3ccccc3[C@]3(Br)C[C@H]4C(=O)N[C@@H](Cc5ccccc5)C(=O)N4[C@H]23)c(C(C)C)c1,IC50,[23],39.9 µM (active)
same,CC50,[24],13.7 µM (active)
CCCOc1cccc(C(=O)NC(=S)Nc2ccc(N3CCN(C)CC3)cc2)c1,IC50,[25],> 100 µM (active)
same,IC50,[26],> 100 µM (active)
